The record followed here is PubChem BioAssay (NCI).

What all share (assay): NCI-60 cell line screen, 48 h
Test [1] concerns NCI-H226 lung.
In test [2] the test system is NCI-H522 lung.
Test [3] deals with SR leukemia.
In test [4] the test system is PC-3 prostate.
The subject of test [5] is MOLT-4 leukemia.
In test [6] the test system is IGROV1 ovarian.
Test [7] concerns U251 CNS.
The test system of test [8] is SK-MEL-28 melanoma.
In test [9] the test system is COLO 205 colon.
For test [10], the system named is SNB-75 CNS.

SMILES strings stand for the structures.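 Dose response: 5 concentrations. Exposure: 48 h. Format: 96-well plates. Endpoint: linear interpolation; highest concentration if not reached. At the TGI there is no net growth.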 Where a SMILES comes first, the peptide text is derived from it. The star is where a group is joined. Boc = CC(C)(C)OC(=O)*; OBn = c1ccc(CO*)cc1

In the case of `O=C(NCc1ccc(Cl)cc1)c1cc2sccc2nc1C(F)(F)F`, the TGI in test [1] is 50 µM; in [2], 95.2 µM; in test [3] it was above 100 µM; in test [4], above 100 µM; in [5] it was above 100 µM; in test [6] it was above 100 µM. For the same compound, the TGI in test [7] is 44.6 µM; in [8] it was above 100 µM; in [9], above 100 µM.

Regarding `CC(C)(C)OC[C@H](O)CC#N`, the TGI in [1], in test [3], in test [4], in test [10], in test [5] and in test [7] was above 100 µM in each case. In addition, the TGI in [8] and in test [9] was above 100 µM throughout.

As for `C[C@]12CC[C@@H]3c4ccc(OC(=O)c5ccccc5)cc4CC[C@H]3[C@@H]1CC[C@@H]2Oc1c2ccccc2nc2ccccc12`, the TGI in test [1] was 48 µM; in [2], 46 µM; in [3], above 50 µM; in test [4], 17.7 µM; in test [10], 18.2 µM; in test [5], 26.7 µM. Moreover, the TGI is 42.4 µM in [6], 15.4 µM in [7], 22.3 µM in [8] and above 50 µM in test [9].

For the compound `C=C(C)C1CC=C(C)C2(C1)OCC(C)(C)C(C)O2` (centres undefined), the TGI in test [1] was 35.7 µM; in test [2], 46.4 µM; in test [3] it was 43.6 µM; in [4] it was above 100 µM; in test [10], 48.2 µM; in [5] it was 51.2 µM. The TGI came out at 48.2 µM in test [6], 31 µM in [7], 63.9 µM in test [8] and 34.5 µM in test [9].

Take `CC(=Nc1ccncc1)C(C)=Nc1ccncc1`: the TGI was above 100 µM in test [1]; 35.3 µM in test [2]; 67 µM in test [3]; 38.9 µM in test [4]; above 100 µM in [10]; 52.7 µM in test [5]. Besides, the TGI was 35.3 µM in test [6], 69.1 µM in test [7], above 100 µM in [8] and 31 µM in test [9].

With `Clc1ccc(N=c2oc3ccccc3cc2-c2nc3ccccc3[nH]2)c(Cl)c1`, the TGI in test [2], in test [3], in [4], in test [5] and in [6] was above 100 µM each time.

Turning to `O=c1[nH]c(Nc2cccc(Cl)c2)nc2nc[nH]c12`, the TGI in [1], in test [2], in [3], in [4], in test [10] and in test [5] was above 100 µM in each case. Moreover, the TGI in [6], in test [7] and in [9] was above 100 µM each time.

On to `COc1cc(S(=O)(=O)Nc2ccc(-c3csc(N4C(=O)CSC4c4ccccc4)n3)cc2)ccc1Cl` (centres undefined), for which the TGI in test [1], in test [2], in [3], in test [4], in [10] and in [5] was above 100 µM throughout. In addition, the TGI in test [6] was above 100 µM; in [8] it was 65.1 µM; in [9], above 100 µM.

In the case of `CC(C)(C)OC(=O)NC(Cc1ccccc1)C(=O)NC(Cc1ccccc1)C(=O)NCC(=O)OCc1ccccc1` (stereo not drawn) (Boc-Phe-Phe-Gly-OBn; configuration not given here), the TGI in test [2] came out at 48.8 µM; in test [3], 44.6 µM; in [4], 35.8 µM; in [10], 59 µM; in [5], 56 µM; in test [6], 26.5 µM. In addition, the results for the TGI in test [7], in test [8] and in test [9] were 36.3 µM, 42.7 µM and above 100 µM, respectively.

Consider `C[N+](C)(C)c1ncnc2c1ncn2C1CCCCO1` (centres undefined), for which the TGI in test [2], in test [3], in test [4], in [10], in [5] and in [6] was above 100 µM in each case. Besides, the TGI in [7], in [8] and in [9] was above 100 µM in each case.

`O=C1c2cccc3cccc(c23)C(=O)N1CCCNOCCONCCCN1C(=O)c2cccc3cccc(c23)C1=O`: the TGI in test [1], in test [3], in test [4], in test [10], in [5] and in test [6] was above 100 µM each time. Also, the TGI in test [7], in test [8] and in test [9] was above 100 µM in each case.

`c1ccc2c(Cc3nnc4sc(SSc5nn6c(Cc7c[nH]c8ccccc78)nnc6s5)nn34)c[nH]c2c1`: the TGI was 40 µM in test [2]; 41.7 µM in test [3]; above 100 µM in [4]; above 100 µM in test [10]; 70.6 µM in test [5]; 27.6 µM in test [6]. In addition, the TGI in test [7] was 58.6 µM; in test [8], above 100 µM; in test [9], 50.9 µM.

As to `CCCCOCn1c(=O)[nH]c(=O)c2cc(Br)ccc21`, the TGI is 46.9 µM in test [1]; above 100 µM in test [3]; above 100 µM in test [4]; above 100 µM in test [10]; above 100 µM in test [5]; above 100 µM in [6]. Moreover, the TGI in [7], in test [8] and in test [9] was above 100 µM each time.

Turning to `Cc1ccc(C(=O)/C(C#N)=C/Nc2c(C)n(C)n(-c3ccccc3)c2=O)cc1`, the TGI in [1], in test [2], in test [3], in test [4], in test [5] and in test [6] was above 100 µM in each case. The TGI in test [7], in [8] and in test [9] was above 100 µM in each case.
